Results from patent US4075341A, “2-Substituted phenyl-5-triazols [5,1-a] isoquinoline compounds” (Gruppo Lepetit S.p.A., priority 1975, dated 1978).

Tested on: carrageenin induced edema
Assay: carrageenin test in rats (anti-inflammatory activity)
Format: in vivo
Details: Rattus norvegicus, po
From the text: The anti-inflammatory activity of some inventive compounds was evidenced by means of the carrageenin test in rats.

SMILES	inhibition at 50 mg/kg (50 mg./kg. p.o.) [%]	inhibition at 100 mg/kg (100 mg./kg. p.o.) [%]
Sc1nc2n(n1)CCc1ccccc1-2 [Example 38, 2-Sulfhydryl-5,6-dihydro-s-triazolo[5,1-a]isoquinoline]	~35	
NC(=O)Nc1nc2n(n1)CCc1ccccc1-2 [Example 54, 2-Ureido-5,6-dihydro-s-triazolo[5,1-a]isoquinoline]		~35
